Experimental data: patent EP4417607A1, “HETEROCYCLIC COMPOUND AS SOS1 INHIBITOR AND USES THEREOF” (Nanjing Zaiming Pharmaceutical Co., Ltd., priority 2021, dated 2023)
pIC50: −log10 of the molar value.

Tests used:
H358 cells = test: H358 cell proliferation inhibition (CellTiter-Glo luminescent cell viability assay); assay type: cell-based; conditions: Homo sapiens, NCI-H358, 168 h, 7 days
Method: The effect of the compounds of the present invention on H358 cell proliferation was assessed by CellTiter-Glo luminescent cell viability assay kit method.
H358 cells (ATCC, CRL-5807) were cultured in RPMI1640 (Hyclone, SH30256.01) complete medium containing 10% FBS (Gibco, 10100147) and 100 U/mL penicillin-streptomycin mixed solution (Gibco, 15140163). When the cells grew to 80-90%, the cells were digested, pipetted, and seeded in a 96-well plate (Corning, 4515) at 3000 cells/well (180 µL RPMI1640 complete medium), and then the 96-well plate was incubated overnight in an incubator at 37 °C with 5% CO2.
After incubation overnight, 20 µL of a diluted test compound was added to each well using a multi-channel pipette, and the 96-well plate was placed in an incubator at 37 °C with 5% CO2 for further culture. After 7 days, 100 µL of the supernatant was pipetted and discarded. 50 µL of CellTiter-Glo® 3D Cell Viability Assay liquid was added to each well. The plate was shaken at room temperature at 450 rpm for 30 min. After the cells were completely lysed, "Luminescence" on the microplate reader was selected for plate reading. In this experiment, the cell-free group (replaced with 1640 medium) was used as the 100% inhibition group, and the compound-free group in which the cell was added was used as the 0% inhibition group.
The inhibition percentage of H358 cell proliferation by the compounds of the present invention could be calculated by the following formula: [formula]
IC50 values of the compounds were calculated from 8 concentration points using XLfit (ID Business Solutions Ltd., UK) software by the following formula: Y = Bottom + (Top−Bottom)/(1+10^(∧)((logIC50−X)×slopefactor)) [formula]
Y is the inhibition percentage, X is the logarithmic value of the concentration of the test compound, Bottom is the minimum inhibition percentage, Top is the maximum inhibition percentage, and slope factor is the slope coefficient of the curve.

[1] = system: p-ERK pathway in H358 cells; test: p-ERK pathway inhibition in H358 cells (Advanced phospho-ERK (Thr202/Tyr204) cellular kit, HTRF); assay type: cell-based; conditions: Homo sapiens, NCI-H358, 1 h compound incubation
Summary of the method: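 Serum-starved H358 cells (50000/well, overnight) treated with compound for 1 h at 37 °C, then lysed; phospho-ERK (Thr202/Tyr204) read by HTRF (665/620 nm ratio). Cell-free wells set 100% inhibition, untreated cells 0%; IC50 fitted from 8 concentrations by four-parameter curve.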

| Structure (SMILES) | pIC50 (H358 cells) | pIC50 [1] |
| --- | --- | --- |
| [2H]C([2H])([2H])Oc1c(=O)n(N2CCOCC2)cc2c(N[C@H](C)c3cccc(C(F)F)c3F)nc(C)nc12 [Example 48, (R)-4-((1-(3-(difluoromethyl)-2-fluorophenyl)ethyl)amino)-8-(methoxy-d3)-2-methyl-6-morpholinepyrido[4,3-d]pyrimidine-7(6H)-one] | 7.33 | 6.94 |
| CC(=O)N1CCN(c2c(=O)n(C3(CF)CC3)cc3c(N[C@H](C)c4cccc(C(F)F)c4F)nc(C)nc23)CC1 [Example 49] | 8.00 | 7.20 |
| Cc1nc(N[C@H](C)c2cccc(C(F)F)c2F)c2cn(C3(CF)CC3)c(=O)c(N3CCOCC3(C)C)c2n1 [Example 52, (R)-4-((1-(3-(difluoromethyl)-2-fluorophenyl)ethyl)amino)-8-(3,3-dimethylmorpholine) -6-(1-(fluoromethyl)cyclopropyl)-2-methylpyrido[4,3-d]pyrimidine-7(6H)-one] | 7.58 | 7.38 |
| Cc1nc(N[C@H](C)c2cccc(C(F)(F)F)c2C)c2cn(C3(CF)CC3)c(=O)c(N3CCOC[C@@H]3C)c2n1 [Example 56, 6-(1-(fluoromethyl)cyclopropyl)-2-methyl-4-(((R)-1-(2-methyl-3-(trifluoromethyl)phenyl)ethyl)amino)-8-((S)-3-methylmorpholine)pyrido[4,3-d]pyrimidine-7(6H)-one] | 7.76 | 7.37 |
| Cc1nc(N[C@H](C)c2cccc(C(F)F)c2F)c2cn(C3(CF)CC3)c(=O)c(N3CCOC[C@@H]3C(C)C)c2n1 [Example 57, 4-(((R)-1-(3-(difluoromethyl)-2-fluorophenyl)ethyl)amino)-6-(1-(fluoromethyl)cyclopropyl)-8-((S)-3-isopropylmorpholino)-2-methylpyrido[4,3-d]pyrimidine-7(6H)-one] | 7.14 | 7.17 |
| CC[C@H]1COCCN1c1c(=O)n(C2(CF)CC2)cc2c(N[C@H](C)c3cccc(C(F)F)c3F)nc(C)nc12 [Example 58, 4-(((R)-1-(3-(difluoromethyl)-2-fluorophenyl)ethyl)amino)-8-((S)-3-ethylmorpholino)-6-(1-(fluoromethyl)cyclopropyl)-2-methylpyrido[4,3-d]pyrimidine-7(6H)-one] | 7.24 | 6.95 |
| Cc1nc(N[C@H](C)c2cccc(C(F)F)c2F)c2cn(C3(CF)CC3)c(=O)c(NC3COC3)c2n1 [Example 61, (R)-4-((1-(3-(difluoromethyl)-2-fluorophenyl)ethyl)amino)-6-(1-(fluoromethyl)cyclopropyl)-2-methyl-8-(oxetan-3-ylamino)pyrido[4,3-d]pyrimidine-7(6H)-one] | 7.64 | 7.79 |
| Cc1nc(N[C@H](C)c2cccc(C(F)F)c2F)c2cn(C3(CF)CC3)c(=O)c(N3CCC(C)(O)C3)c2n1 (stereo partly drawn) [Example 62, 4-(((R)-1-(3-(difluoromethyl)-2-fluorophenyl)ethyl)amino)-6-(1-(fluoromethyl)cyclopropyl)-8-(3-hydroxy-3-methylpyrrolidin-1-yl)-2-methylpyrido[4,3-d]pyrimidine-7(6H)-one] | 7.15 | 6.88 |
| Cc1nc(N[C@H](C)c2cccc(C(F)F)c2F)c2cn(C3(CF)CC3)c(=O)c(N(C)c3cnn(C)c3)c2n1 [Example 65, (R)-4-((1-(3-(difluoromethyl)-2-fluorophenyl)ethyl)amino)-6-(1-(fluoromethyl)cyclopropyl)-2-methyl-8-(methyl(1-methyl-1H-pyrazol-4-yl)amino)pyrido[4,3-d]pyrimidine-7(6H)-one] | 7.18 | 7.57 |
| Cc1nc(N[C@H](C)c2cccc(C(F)F)c2F)c2cn(C3(CF)CC3)c(=O)c(S(C)(=O)=O)c2n1 [Example 66, (R)-4-((1-(3-(difluoromethyl)-2-fluorophenyl)ethyl)amino)-6-(1-(fluoromethyl)cyclopropyl)-2-methyl-8-(methylsulfonyl)pyrido[4,3-d]pyrimidine-7(6H)-one] | 7.10 | 7.11 |
| Cc1nc(N[C@H](C)c2cccc(C(F)F)c2F)c2cn(N3CCOCC3)c(=O)c(N3CCOC[C@@H]3C)c2n1 [Example 68, 4-(((R)-1-(3-(difluoromethyl)-2-fluorophenyl)ethyl)amino)-2-methyl-8-((S)-3-methylmorpholine)-6-morpholinepyrido[4,3-d]pyrimidine-7(6H)-one] | 7.60 | 7.82 |
| Cc1nc(N[C@H](C)c2cccc(C(F)F)c2F)c2cn(N3CCOCC3)c(=O)c(N3CCN(C)CC3)c2n1 [Example 69, (R)-4-((1-(3-(difluoromethyl)-2-fluorophenyl)ethyl)amino)-2-methyl-8-(4-methylpiperazin-1-yl)-6-morpholinepyrido[4,3-d]pyrimidine-7(6H)-one] | 7.64 | 7.41 |
| Cc1nc(N[C@H](C)c2cccc(C(F)(F)F)c2C)c2cn(N3CCOCC3)c(=O)c(N3CCN(C)CC3)c2n1 [Example 70, (R)-2-methyl-4-((1-(2-methyl-3-(trifluoromethyl)phenyl)ethyl)amino)-8-(4-methylpiperazin-1-yl)-6-morpholinepyrido[4,3-d]pyrimidine-7(6H)-one] | 7.34 | 7.46 |
| Cc1nc(N[C@H](C)c2cccc(C#N)c2C)c2cn(C3(CF)CC3)c(=O)c(-c3ccc(C#N)cc3)c2n1 [Example 71, (R)-3-(1-((8-(4-cyanophenyl)-6-(1-(fluoromethyl)cyclopropyl)-2-methyl-7-oxo-6,7-dihydropyrido[4,3-d]pyrimidin-4-yl)amino)ethyl)-2-methylbenzonitrile] | 6.94 | 6.81 |
| Cc1nc(N[C@H](C)c2cccc(C(F)F)c2F)c2cn(C3(CF)CC3)c(=O)c(Oc3ccnc(C#N)c3)c2n1 [Example 72, (R)-4-((4-((1-(3-(difluoromethyl)-2-fluorophenyl)ethyl)amino)-6-(1-(fluoromethyl)cyclopropyl)-2-methyl-7-oxo-6,7-dihydropyrido[4,3-d]pyrimidin-8-yl)oxy)pyridinecarbonitrile] | 7.13 | 7.14 |
| CC(=O)N1CCC(Oc2c(=O)n(C3(CF)CC3)cc3c(N[C@H](C)c4cccc(C(F)F)c4F)nc(C)nc23)CC1 [Example 73, (R)-8-((1-acetylpiperidin-4-yl)oxy)-4-((1-(3-(difluoromethyl)-2-fluorophenyl)ethyl)amino)-6-(1-(fluoromethyl)cyclopropyl)-2-methylpyrido[4,3-d]pyrimidine-7(6H)-one] | 7.14 | 6.99 |
| Cc1nc(N[C@H](C)c2cccc(C#N)c2C)c2cn(N3CCOCC3)c(=O)c(N3CCN(C)CC3)c2n1 [Example 76, (R)-2-methyl-3-(1-((2-methyl-8-(4-methylpiperazin-1-yl)-6-morpholine-7-oxo-6,7-dihydropyrido[4,3-d]pyrimidin-4-yl)amino)ethyl)benzonitrile] | 6.96 | 6.95 |
| [2H][C@](C)(Nc1nc(C)nc2c(N3CCOCC3)c(=O)n(N3CCOCC3)cc12)c1cccc(C(F)F)c1F [Example 78, (R)-4-((1-(3-(difluoromethyl)-2-fluorophenyl)ethyl-1-d)amino)-2-methyl-6,8-dimorpholinepyrido[4,3-d]pyrimidine-7(6H)-one] | 7.15 | 7.40 |
| Cc1nc(N[C@H](C)c2cccc(S(F)(F)(F)(F)F)c2)c2cn(N3CCOCC3)c(=O)c(N3CCN(C)CC3)c2n1 [Example 82, (R)-2-methyl-8-(4-methylpiperazin-1-yl)-6-morpholine-4-((1-(3-(pentafluoro-λ^6-sulfanyl)phenyl)ethyl)amino)pyrido[4,3-d]pyrimidine-7(6H)-one] | 7.52 | 7.13 |
| CC(=O)Nc1c(=O)n(C2(CF)CC2)cc2c(N[C@H](C)c3cccc(C(F)F)c3F)nc(C)nc12 [Example 83, (R)-N-(4-((1-(3-(difluoromethyl)-2-fluorophenyl)ethyl)amino)-6-(1-(fluoromethyl)cyclopropyl)-2-methyl-7-oxo-6,7-dihydropyrido[4,3-d]pyrimidine-8-yl)acetamide] | 7.04 | 7.04 |
| Cc1nc(N[C@H](C)c2cccc(C(F)(F)F)c2C)c2cn(C3(CF)CC3)c(=O)c(N3CCO[C@H](C)C3)c2n1 [Example 85, 6-(1-(fluoromethyl)cyclopropyl)-2-methyl-4-(((R)-1-(2-methyl-3-(trifluoromethyl)phenyl)ethyl)amino)-8-((R)-2-methylmorpholine)pyrido[4,3-d]pyrimidine-7(6H)-one] | 7.01 | 7.39 |
| [2H]C([2H])([2H])[C@@H](Nc1nc(C)nc2c(N3CCOCC3)c(=O)n(C3(CF)CC3)cc12)c1cccc(C(F)F)c1F [Example 90] | 7.45 | 7.78 |
